Here are results for nine molecules from PMC8746696 (Molecules, 2021).

In one series the target is TDP1 (Homo sapiens, UniProt Q9NUW8). In words: Real-time fluorescence detection of TDP1 activity (FAM/BHQ1 oligonucleotide biosensor). Format: biochemical. From the text: For real-time detection of TDP1 activity, we used the oligonucleotide biosensor based on the ability of TDP1 to remove fluorophore quenchers from the 3′-end of DNA [29]. The hexadecameric oligonucleotide carried 5(6)-carboxyfluorescein (FAM) at the 5′-end and fluorophore quencher BHQ1 (Black Hole Quencher-1) at the 3′-end. TDP1 inhibitors prevent the removal of fluorophore quenchers, thus reducing fluorescence intensity.
Chain of TDP1 (Q9NUW8 whole entry): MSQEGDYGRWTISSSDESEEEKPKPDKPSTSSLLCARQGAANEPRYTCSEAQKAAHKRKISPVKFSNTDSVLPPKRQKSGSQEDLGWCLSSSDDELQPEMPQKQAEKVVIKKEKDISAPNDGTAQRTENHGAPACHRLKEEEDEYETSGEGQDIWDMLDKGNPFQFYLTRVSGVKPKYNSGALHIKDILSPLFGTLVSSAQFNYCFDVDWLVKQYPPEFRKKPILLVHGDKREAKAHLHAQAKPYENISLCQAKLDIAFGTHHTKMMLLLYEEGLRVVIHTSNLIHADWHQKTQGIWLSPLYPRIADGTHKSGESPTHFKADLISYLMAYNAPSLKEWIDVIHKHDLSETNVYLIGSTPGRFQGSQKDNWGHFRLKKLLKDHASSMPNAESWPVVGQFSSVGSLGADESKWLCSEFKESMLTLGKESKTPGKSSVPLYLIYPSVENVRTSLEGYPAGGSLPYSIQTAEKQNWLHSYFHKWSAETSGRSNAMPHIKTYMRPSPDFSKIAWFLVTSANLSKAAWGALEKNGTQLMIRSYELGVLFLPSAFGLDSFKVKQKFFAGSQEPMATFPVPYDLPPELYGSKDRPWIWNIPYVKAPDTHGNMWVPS
TDP1 activity was detected, as described by intensity measurement in a reaction of quencher removal from a fluorophore quencher–coupled DNA oligonucleotide catalyzed by TDP1. The reaction was carried out at different concentrations of inhibitors (the control samples contained 1% of DMSO). The reaction mixtures contained TDP1 buffer (50 mM Tris-HCl pH 8.0, 50 mM NaCl, and 7 mM β-mercaptoethanol), 50 nM biosensor, and an inhibitor being tested. Purified TDP1 (1.5 nM) triggered the reaction. The biosensor (5′-[FAM] AAC GTC AGGGTC TTC C [BHQ]-3′) was synthesized in the Laboratory of Nucleic Acid Chemistry at the Institute of Chemical Biology and Fundamental Medicine (Novosibirsk, Russia).
The reactions were incubated on a POLARstar OPTIMA fluorimeter (BMG LABTECH, GmbH, Ortenberg, Germany) to measure fluorescence every 60 s (ex. 485/em. 520 nm) during the linear phase (here, data from minute 0 to minute 8). The values of IC50 were determined using a six-point concentration response curve in a minimum of three independent experiments and were calculated using MARS Data Analysis 2.0 (BMG LABTECH, Ortenberg, Germany).

The target of the next series is T1, recombinant human TDP2 (Homo sapiens, UniProt O95551).
T1 sequence (O95551 1-362): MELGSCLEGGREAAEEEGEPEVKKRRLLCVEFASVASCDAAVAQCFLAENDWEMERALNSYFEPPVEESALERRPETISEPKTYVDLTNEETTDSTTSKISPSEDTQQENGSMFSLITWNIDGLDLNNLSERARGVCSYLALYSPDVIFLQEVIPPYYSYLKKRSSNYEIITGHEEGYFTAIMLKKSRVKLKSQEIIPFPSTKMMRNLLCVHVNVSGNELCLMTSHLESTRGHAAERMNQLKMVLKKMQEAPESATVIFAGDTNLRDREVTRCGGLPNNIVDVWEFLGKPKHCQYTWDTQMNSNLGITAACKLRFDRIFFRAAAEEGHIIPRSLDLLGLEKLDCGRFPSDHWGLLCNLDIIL
In words: Gel-based TDP2 activity assay (removal of 5'-tyrosine from oligonucleotide, PAGE). Format: biochemical. Set-up: key to Tdp2 activity, c 200 µM / Tdp2 (inhibitor concentration 1 mM): TDP2 active (+); -: inactive (−). The following applies: for Tdp2 activity, c 200 µM: c 200 µM (Table S3 head); for Tdp2 (inhibitor concentration 1 mM) / remaining activity at 1000 µM: inhibitor 1 mM; for remaining activity at 1000 µM: residual enzyme activity, read-out: TDP2 (Inhibitor Concentration 1 mM), residual activity of TDP2. Here is the method: We investigated the activity against the TDP2 enzyme for compounds 4–10, 12–15, and 17–19 (Table 1). TDP2 was tested for its ability to eliminate tyrosine residue from the 5’-end of the oligonucleotide substrate. The TDP2 reaction products were separated under denaturing conditions in polyacrylamide gel (PAGE). […] Note that as different assays formats were used for TDP1 and TDP2 inhibition, the value of these assays cannot be directly compared. A paper on derivatives of usnic acid as effective TDP1 inhibitors and mild inhibitors of TDP2 was recently published. […] More inhibitors of this enzyme have also been reported in the literature. Obviously, further work for increasing activity against TDP2 is needed.
The oligonucleotide with tyrosine residue on the 5′-end (5′-tyrosine-AAC GTC AGG GTC TTC C-FAM-3′) was used for the TDP2 enzyme activity assay. The TDP2 reaction products were separated under denaturing conditions in polyacrylamide gel (PAGE). The reaction was performed in a final volume of 20 μL using 100 nM substrate incubated with 200 nM recombinant human TDP2 in the absence or presence of the inhibitor for 10 min at 37 °C in a buffer containing 50 mM Tris-HCl, pH 8.0, 50 mM NaCl, 7 mM β-mercaptoethanol. Reactions were terminated by the addition of gel loading buffer contained 10% formamide, 7 M carbamide, 0.1% xylene cyanol, and 0,1% bromophenol blue. The samples were heated at 90 °C for 7 min before loading on the gel. The reaction products were separated by electrophoresis in a 20% denaturing PAGE with 7 M carbamide. A Typhoon FLA 9500 phosphorimager (GE Healthcare) was used for gel scanning and imaging. Each experiment was carried out in three independent replicates. The data were analyzed with QuantityOne 4.6.7 software.

Setting [1] is: read-out: IC50 (Tdp1, Table S4).
The mark [2] stands for this setting: concentration that inhibits the activity of the enzyme by 50%, read-out: TDP1 IC50.

Like-named read-outs stand apart in the source and are kept apart here. Where only a bound is given, the exact number is not on record here.

With `C[C@H](CCC(=O)O)[C@H]1CC[C@H]2[C@@H]3CC[C@@H]4C[C@H](OCc5ccccc5)CC[C@]4(C)[C@H]3C[C@H](OCc3ccccc3)[C@]12C` [Compound 1, 3α,12α-Dibenzyloxy-5β-cholan-24-oic acid], the melting point (commonly the temperature of the solid-liquid transition) was 181.2 °C (dec.). For the same molecule, on TDP1 (setting [1]), the 50% inhibitory concentration (IC50) – broadly, the concentration that inhibits the measured activity by half – stood at 440 nM. Besides, at recombinant human TDP2, the “Tdp2 activity, c 200 µM” value is “+” and the “Tdp2 (inhibitor concentration 1 mM)” value is given as “+”.

On to `C[C@H](CCC(=O)O)[C@H]1CC[C@H]2[C@@H]3CC[C@@H]4C[C@H](OCc5ccccc5)CC[C@]4(C)[C@H]3C[C@H](O)[C@]12C` [Compound 2, 3α-Benzyloxy-12α-hydroxy-5β-cholan-24-oic Acid], for which the melting point is 86 °C (dec.). Besides, the IC50 on TDP1 (setting [1]) came out at 18300 nM. At recombinant human TDP2, the “Tdp2 activity, c 200 µM” value is “+” and the “Tdp2 (inhibitor concentration 1 mM)” value is recorded as “+”.

Molecule `C[C@H](CCC(=O)O)[C@H]1CC[C@H]2[C@@H]3CC[C@@H]4C[C@H](OCc5ccccc5)CC[C@]4(C)[C@H]3CC(=O)[C@]12C` [Compound 3, 3α-Benzyloxy-12α-oxo-5β-cholan-24-oic Acid] gave a melting point of 147.9 °C. Moreover, the concentration for half-maximal inhibition (IC50) on TDP1 (setting [1]) was found to be 780 nM. For the same molecule, at recombinant human TDP2, the “Tdp2 activity, c 200 µM” value is on record as “+” and the “Tdp2 (inhibitor concentration 1 mM)” value is reported as “+”.

As to `C[C@H](CCC(=O)Nc1ccc(Br)cc1)[C@H]1CC[C@H]2[C@@H]3CC[C@@H]4C[C@H](OCc5ccccc5)CC[C@]4(C)[C@H]3C[C@H](OCc3ccccc3)[C@]12C` [Compound 7, N-(4′-Bromophenyl)-3α,12α-dibenzyloxy-5β-cholane-24-amide], the melting point lay in the range of 186.2 to 191.3 °C. Further, the IC50 on TDP1 (setting [2]) is 970 ± 460 nM. For the same molecule, at recombinant human TDP2, the “Tdp2 activity, c 200 µM” value was “+”; the “Tdp2 (inhibitor concentration 1 mM)” value is “+”; the remaining activity at 1000 µM was found to be 44 ± 5%.

For the molecule `C[C@H](CCC(=S)Nc1ccc(Br)cc1)[C@H]1CC[C@H]2[C@@H]3CC[C@@H]4C[C@H](OCc5ccccc5)CC[C@]4(C)[C@H]3C[C@H](OCc3ccccc3)[C@]12C` [Compound 11, N-(4′-Bromophenyl)-3α,12α-dibenzyloxy-5β-cholane-24-thioamide], the melting point was 58 °C (dec.).

The molecule `C[C@H](CCC(=O)O/N=C(\N)Cc1ccc(Br)cc1)[C@H]1CC[C@H]2[C@@H]3CC[C@@H]4C[C@H](OCc5ccccc5)CC[C@]4(C)[C@H]3C[C@H](OCc3ccccc3)[C@]12C` [Compound 12] registered a melting point of 80.2 to 83.9 °C. Besides, the IC50 on TDP1 (setting [2]) is 320 ± 130 nM. In addition, on recombinant human TDP2, the “Tdp2 activity, c 200 µM” value is reported as “+”; the “Tdp2 (inhibitor concentration 1 mM)” value was “+”; the remaining activity at 1000 µM is less than 50%.

As for `C[C@H](CCc1nc(Cc2ccc(Br)cc2)no1)[C@H]1CC[C@H]2[C@@H]3CC[C@@H]4C[C@H](OCc5ccccc5)CC[C@]4(C)[C@H]3C[C@H](OCc3ccccc3)[C@]12C` [Compound 13, 5′-(24-Nor-3α,12α-dibenzyloxy-5β-cholan-23-yl)-3′-(methyl(4″-bromophenyl))-1′,2′,4′-oxadiazole], on TDP1 (setting [2]), the IC50 is 530 ± 230 nM. Moreover, on recombinant human TDP2, the “Tdp2 activity, c 200 µM” value is recorded as “-”; the “Tdp2 (inhibitor concentration 1 mM)” value is on record as “-”; the remaining activity at 1000 µM is greater than 50%.

On to `C[C@H](CCC(=O)O/N=C(\N)c1ccc(Br)cc1)[C@H]1CC[C@H]2[C@@H]3CC[C@@H]4C[C@H](OCc5ccccc5)CC[C@]4(C)[C@H]3C[C@H](OCc3ccccc3)[C@]12C` [Compound 14], for which the melting point lay in the range of 144.5 to 147.4 °C. Further, at TDP1 (setting [2]), the half-maximal inhibitory concentration (IC50) came to 330 ± 150 nM. Also, at recombinant human TDP2, the “Tdp2 activity, c 200 µM” value is on record as “+”; the “Tdp2 (inhibitor concentration 1 mM)” value is recorded as “+”; the remaining activity at 1000 µM was less than 50%.

Molecule `COC(=O)CC[C@@H](C)[C@H]1CC[C@H]2[C@@H]3CC[C@@H]4C[C@H](OCc5ccccc5)CC[C@]4(C)[C@H]3C[C@H](OCc3ccccc3)[C@]12C` [Compound 16, Methyl 3α,12α-Dibenzyloxy-5β-cholan-24-oate] registered a melting point of 93.3 to 93.7 °C. Moreover, on recombinant human TDP2, the “Tdp2 activity, c 200 µM” value is “-” and the “Tdp2 (inhibitor concentration 1 mM)” value is given as “-”.
